Each compound was assayed on Wnt/β-catenin signaling (β-catenin activity) in SW480 cell line (assay: Cell-based Wnt agonist screening, TCF luciferase reporter, SW480 (TCF-FL)). Conditions: Homo sapiens, % of LiCl (20 mM), 24 h, Con. 1 μM, read-out: Max. Activity (%).
Set-up: species or system human
Source text: In order to measure the in vitro activity of compounds of the present invention, two human cancer cell lines, HEK293 and SW480, which have intact Wnt signaling and show APC gene mutation in the Wnt signaling pathway, respectively, were used.
For evaluating the activity of wnt/β-catenin signaling in the cancer cell lines, gene as illustrated in FIG. 1 having β-catenin-binding sites of the Tcf/Lef transcriptional control protein (5 sites of TCF, 5X TCF) and having a fire fly luficerase as a marker protein ascertainable the activity of 5X TCF was introduced into the cells. Treatment with G418 led monoclones of the cell lines, in which the genes were permanently expressed, so as to construct a cell-based Wnt agonist screening system. […] For comparison with the activity of the isoxazole derivatives as Wnt agonists, lithium chloride (LiCl), acting as a positive control for the cell-based Wnt agonist screening system, was used to determine the expression level of the luciferase, and the results are shown in FIG. 3.
The cell lines, in which a cell-based Wnt agonist screening system was constructed, were cultured in RPMI 1640 media supplemented with penicillin-streptomycin (100 Units/mL) and heat-inactivated 5% fetal bovine serum under standard culture conditions (5% CO2, 37° C., 100% relative humidity). […] The suspension was diluted with the same medium to adjust the cell count to 8,000˜15,000 cells per well and was moved then in a 96-well microtiter plate. After being incubated for 24 hrs, the cells were treated with various concentrations of the isoxazole derivatives synthesized in Preparation Examples. Incubation for an additional 24 hours was followed by the quantitative analysis of luciferase activity using a Luciferase Assay kit (Promega, U.S.A.) according to the protocol described in the manual provided by the manufacturer. Data on the activities of the isoxazole derivatives thus synthesized are given in Tables 34 to 43, and are expressed as percentages relative to the activity of the positive control LiCl (20 mM), a well-known agonist of Wnt signaling.

Compound `O=C(NCCNc1ccccc1)c1cc(-c2ccco2)on1` [Derivative (195), 5-furan-2-yl-isoxazole-3-carboxylic acid (2-phenylamino-ethyl)-amide] has an Emax at 1 µM of 84%.

Same assay, conditions: Homo sapiens, % of LiCl (20 mM), 24 h, Con. 10 μM, read-out: Max. Activity (%)

First: O=C(NCCn1cncn1)c1cc(-c2ccco2)on1 [Derivative (38), 5-furan-2-yl-isoxazole-3-carboxylic acid (2-[1,2,4]triazol-1-yl-ethyl)-amide]
Second: O=C(NCCCn1cncn1)c1cc(-c2ccoc2)on1 [Derivative (153), 5-furan-3-yl-isoxazole-3-carboxylic acid (3-[1,2,4]-triazol-1-yl-propyl)-amide]
The Emax at 10 µM of the first is higher: 551% for the first, 304% for the second.

`CN1CCN(C(=O)OCc2cc(-c3ccco3)on2)CC1` [Derivative (253), 4-methyl-piperazine-1-carboxylic acid 5-furan-2-yl-isoxazol-3-ylmethyl ester] was tested, and the Emax at 10 µM was 66%.

Same assay, conditions: Homo sapiens, % of LiCl (20 mM), 24 h, Con. 30 μM, read-out: Max. Activity (%)

Going from `O=C(NCCn1nccn1)c1cc(-c2ccco2)on1` [Derivative (40), 5-furan-2-yl-isoxazole-3-carboxylic acid (2-[1,2,3]triazol-2-yl-ethyl)-amide] to `O=C(NCCn1ccnn1)c1cc(-c2ccco2)on1` [Derivative (41), 5-furan-2-yl-isoxazole-3-carboxylic acid (2-[1,2,3]triazol-1-yl-ethyl)-amide], the Emax at 30 µM falls from 896% to 676%.

Going from `O=C(NCCc1ccc(O)cc1)c1cc(-c2ccccc2)on1` [Derivative (73), 5-phenyl-isoxazole-3-carboxylic acid [2-(4-hydroxy-phenyl)-ethyl]-amide] to `O=C(CCNC(=O)c1cc(-c2cccs2)on1)Nc1ccccc1` [Derivative (209), 5-thiophen-2-yl-isoxazole-3-carboxylic acid (2-phenylcarbamoyl-ethyl)-amide], the Emax at 30 µM falls from 853% to 246%.

`O=C(NCCS(=O)(=O)c1ccccc1)c1cc(-c2cccs2)on1` [Derivative (219), 5-thiophen-2-yl-isoxazole-3-carboxylic acid (2-benzenesulfonyl-ethyl)-amide] was tested, and the Emax at 30 µM was 113%.

Same assay, conditions: Homo sapiens, % of LiCl (20 mM), 24 h, Con. 120 μM, read-out: Max. Activity (%)

Going from `CC(=O)N1CCN(C(=O)OCc2cc(-c3ccco3)on2)CC1` [Derivative (252), 4-acetyl-piperazine-1-carboxylic acid 5-furan-2-yl-isoxazol-3-ylmethyl ester] to `O=C(OCc1cc(-c2ccco2)on1)n1ccnc1` [Derivative (251), imidazole-1-carboxylic acid 5-furan-2-yl-isoxazol-3-ylmethyl ester], the Emax at 120 µM falls from 49% to 35%.

Going from `O=C(NCCCn1ccnc1)c1cc(-c2ccoc2)on1` [Derivative (152), 5-furan-3-yl-isoxazole-3-carboxylic acid (3-imidazol-1-yl-propyl)-amide] to `Nc1ccc(-c2cc(C(=O)NCCCn3ccnc3)no2)cc1` [Derivative (120), 5-(4-amino-phenyl)-isoxazole-3-carboxylic acid (3-imidazol-1-yl-propyl)-amide], the Emax at 120 µM falls from 374% to 246%.

First: O=C(NCCn1cncn1)c1cc(-c2ccsc2)on1 [Derivative (158), 5-thiophen-3-yl-isoxazole-3-carboxylic acid (2-[1,2,4]-triazol-1-yl-ethyl)-amide]
Second: O=C(NCCn1cncn1)c1cc(-c2cccs2)on1 [Derivative (135), 5-thiophen-2-yl-isoxazole-3-carboxylic acid (2-[1,2,4]triazol-1-yl-ethyl)-amide]
The Emax at 120 µM of the first is lower: 414% for the first, 945% for the second.

Going from `O=C(NCCCn1ccnc1)c1cc(-c2ccc(Br)s2)on1` [Derivative (143), 5-(5-bromo-thiophen-2-yl)-isoxazole-3-carboxylic acid (3-imidazol-1-yl-propyl)-amide] to `O=C(NCCN1CCCCC1)c1cc(-c2ccco2)on1` [Derivative (174), 5-furan-2-yl-isoxazole-3-carboxylic acid (2-piperidin-1-yl-ethyl)-amide], the Emax at 120 µM falls from 93% to 79%.

Compound `O=C(NCc1ccncc1)OCc1cc(-c2ccco2)on1` [Derivative (254), pyridin-4-ylmethyl-carbamic acid 5-furan-2-yl-isoxazol-3-ylmethyl ester] has an Emax at 120 µM of 37%.

Source: patent US7915297B2, “Isoxazole derivatives and use thereof” (SK Holdings Co., Ltd., priority 2005, dated 2011)
